Patent US7901692B2, “Nontypeable Haemophilus influenzae virulence factors” (Nationalwide Children's Hospital, Inc., priority 2003, dated 2011)

Legend:
[1] = system: NTHi parent strain 86-028NP; assay: Broth minimal inhibitory concentration (MIC) analysis for protamine; type: cell-based, nontypeable Haemophilus influenzae; conditions: aerobic growth in sBHI broth
Method: (§1) Since the sap mutants of S. typhimurium and E. chrysanthemi were reported to be hypersensitive to certain antimicrobial peptides, sensitivity to several commercial available cationic peptides against the NTHi parent and the sapF mutant strains was analyzed. […] Broth minimal inhibitory concentration (MIC) analyses for protamine determined that the MIC of protamine for the sapF::mTn5 mutants was lower than that for the parent strain (0.2 mg/ml versus 0.4 mg/ml). […] Thus, the sapF gene product is not required for growth in enriched media, and the lack of growth of the sapF mutants at the lower protamine concentrations in sBHI broth was not due to a growth defect. Therefore, the sapF mutation may be responsible for the phenotype of increased sensitivity to protamine, and the in vivo attenuation property of the sapF mutant.

NTHi sapF::mTn5 mutants = assay: as above; type: cell-based, nontypeable Haemophilus influenzae
Text: To ensure no secondary mutation in the original sapF::mTn5 mutant contributed to the various phenotypes of this mutant, the parent strain 86-028NP was transformed with the 6 kb EcoRV fragment containing the sapF::mTn5 allele from the pBlueA1 plasmid. The wild type sapF gene was replaced in this strain by homologous recombination with the sapF::mTn5 allele. One Km resistant clone was confirmed to harbor a miniTn5 interrupted sapF gene by PCR and Southern blot analysis. This clone was further characterized together with the sapF::mTn5 strain and designated RcsapF::mTn5.
as §1

In the case of protamine, the MIC of protamine [1] is reported as 400 µg/mL, the “sensitivity of mutant to the action of protamine” value (NTHi sapF::mTn5 mutants; sapF::mTn5 mutant, more sensitive (relative to parent strain)) is reported as 3 fold and the MIC of protamine (NTHi sapF::mTn5 mutants; sapF::mTn5 mutants, aerobic growth in sBHI broth) is reported as 200 µg/mL.
